Target: T1, APEH partially purified from human blood cells (Homo sapiens, UniProt P13798)
T1 construct: incubated with APEH partially purified from human blood cells; from tissue; host or cells: human red blood cells (erythrocyte hemolysate from donors' blood)
T1 sequence (P13798 1-732): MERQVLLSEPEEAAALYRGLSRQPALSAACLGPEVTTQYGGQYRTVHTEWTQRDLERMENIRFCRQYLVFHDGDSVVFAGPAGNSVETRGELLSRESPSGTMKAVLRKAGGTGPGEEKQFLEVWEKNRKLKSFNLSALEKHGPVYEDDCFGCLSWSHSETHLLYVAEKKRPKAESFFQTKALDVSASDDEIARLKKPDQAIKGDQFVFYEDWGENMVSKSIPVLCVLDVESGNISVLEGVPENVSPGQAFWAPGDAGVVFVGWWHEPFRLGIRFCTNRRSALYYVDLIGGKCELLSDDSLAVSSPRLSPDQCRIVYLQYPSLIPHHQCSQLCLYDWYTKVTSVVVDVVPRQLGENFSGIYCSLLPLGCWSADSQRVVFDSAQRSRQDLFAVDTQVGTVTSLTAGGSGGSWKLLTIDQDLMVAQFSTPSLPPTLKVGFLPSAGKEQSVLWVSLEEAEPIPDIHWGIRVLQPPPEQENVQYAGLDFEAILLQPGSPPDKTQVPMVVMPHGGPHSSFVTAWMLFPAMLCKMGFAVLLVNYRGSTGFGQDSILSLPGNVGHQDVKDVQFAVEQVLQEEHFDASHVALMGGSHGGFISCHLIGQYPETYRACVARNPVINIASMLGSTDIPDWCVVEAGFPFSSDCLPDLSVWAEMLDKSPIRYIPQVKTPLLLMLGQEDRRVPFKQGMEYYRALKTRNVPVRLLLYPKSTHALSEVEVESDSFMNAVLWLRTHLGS
Assay: Treatment of peptides with APEH and assessment of proteolysis by LC-MS
Type: biochemical
Details: APEH 0.7 μg, 37 °C, 48 h; for % Degradation (overall % of peptide degraded upon exposure to APEH): sum of fragment % of Table 2(a), Tris-HCl 25 mM pH 7.5, N.D. = not degraded
Procedure: In order to identify the potential cleavage sites of APEH on the oxidized GDF11[48-64], the peptide was incubated alone or in combination with the enzyme and the corresponding reaction mixtures were analyzed by LC-MS. The same experiments were performed using the non-oxidized analogues as control.
Blood samples were taken from donors using syringes with heparin. In accordance with ethical principles stated in the Declaration of Helsinki, as well as with approved national and international guidelines for human research, a written informed consent was obtained from participants. The erythrocytes were separated from the plasma by centrifugation at 1800× g for 5 min at 4 °C and washed twice with an isotonic solution (10 mM Tris-HCl pH 7.6, […]; 4 °C). Lysis of erythrocytes was carried out by incubation in hypotonic solution (25 mM Tris/HCl, pH 7.5) for 30 min on ice. The hemolysate was obtained by centrifugation of the lysate at 9200× g for 40 min at 4 °C. Then, the ‘soluble fraction’ was loaded onto a DEAE Sepharose Fast Flow column, connected to an AKTA FPLC system (Amersham Biosciences, Amersham, UK), previously equilibrated in 25 mM Tris-HCl (pH 7.5) (buffer A). The bound proteins were eluted using a linear ionic strength gradient (0–100%) of 1 M NaCl in buffer A at a flow rate of 1 mL min^−1. The active fractions were collected, pooled, dialyzed against 25 mM Tris-HCl pH 7.5 and loaded on a Superdex 200 PC 3.2/30 column (Pharmacia Biotech, Stockholm, Sweden) connected to a SMART System (Pharmacia Biotech, Stockholm, Sweden). The bound proteins were eluted with 25 mM Tris-HCl buffer, pH 7.5, containing 50 mM NaCl, at a flow rate of 0.1 mL min^−1. The active fractions were collected, pooled, dialyzed against 25 mM Tris-HCl pH 7.5 and stored in the same buffer supplemented with 5% glycerol. Enzyme purification was monitored using Ac-Met-7-amino-4-methylcoumarin (AMC) as substrate. Active fractions were analyzed by SDS-PAGE (12%) in order to evaluate the enrichment of the protein during the various purification steps. The protein was also characterized by Western Blot analysis. Aliquots of protein samples were subjected to SDS-PAGE (8%), and then electroblotted onto PVDF membranes (ImmobilonTM, Millipore, Milan, Italy). Membranes were next incubated with the specific primary antibody (sc-102311, 1:5000, Santa Cruz Biotechnology, USA) and then with the horseradish peroxidase-conjugated secondary antibody for 1 h at 37 °C (1:5000, Santa Cruz Biotechnology, Dallas, TX, USA). The immune complexes formed were visualized by enhanced chemiluminescence and autoradiography, according to the manufacturer’s protocol (Amersham Biosciences, Amersham, UK). Molecular mass of the native enzyme was established by gel filtration chromatography on a Superdex 200 PC 3.2/30 column (Pharmacia Biotech, Stockholm, Sweden), connected to a SMART system (Pharmacia Biotech, Stockholm, Sweden), and calibrated with BioRad gel filtration standards (BioRad, Milano, Italy; code 151-1901). The enzyme inhibition assay was performed on APEH preparation using the selective and potent inhibitor AA74-1 (SML0358, Sigma-Aldrich, Milano, Italy). Mixtures containing appropriate amount of inhibitor (62 µM) and APEH sample (0.7 μg) were pre-incubated for 30 min at 37 °C; then the substrate Ac-Met-7-amino-4-methylcoumarin (AMC) was added to the assay mixture and the enzymatic activity was followed as previously described. Control samples were prepared by pre-incubating the same amounts of APEH without the inhibitor and then assayed following the same procedure.
In total, 10 nmol/200 μL of each molecule was incubated with APEH partially purified from human blood cells (0.7 μg, 24.000 total units) at 37 °C for 48 h in Tris-HCl 25 mM pH 7.5. […]

[1] = 10 nmol/200 μL peptide, Tris-HCl 25 mM pH 7.5, EIC peak areas, average of three independent experiments
[2] = 10 nmol/200 μL peptide, Tris-HCl 25 mM pH 7.5, EIC peak areas, average of three independent experiments, listed as GDF11[48-64]ox
[3] = 10 nmol/200 μL peptide, Tris-HCl 25 mM pH 7.5, EIC peak areas, average of three independent experiments, listed as GDF11 wt

% fragment cleaved at L60 (Ac-...HTHL, lacking VQQA), percentage of the initial substrate [1]	% fragment cleaved on carboxy side of H59 (Ac-...HTH, lacking LVQQA), percentage of the initial substrate [1]	% fragment cleaved on carboxy side of Q62 (Ac-...HTHLVQ, lacking QA), percentage of the initial substrate [1]	% intact peptide left after APEH exposure (percentage of the initial substrate) [1]	% fragment cleaved at L60 (Ac-...HTHL, lacking VQQA), percentage of the initial substrate [2]	% fragment cleaved on carboxy side of H59 (Ac-...HTH, lacking LVQQA), percentage of the initial substrate [2]	% fragment cleaved on carboxy side of Q62 (Ac-...HTHLVQ, lacking QA), percentage of the initial substrate [2]	% fragment cleaved on carboxy side of H59 (Ac-...HTH, lacking LVQQA), percentage of the initial substrate [3]	% fragment cleaved on carboxy side of Q62 (Ac-...HTHLVQ, lacking QA), percentage of the initial substrate [3]	cleavage at H59 as % of the total processed peptide (Tris-HCl 25 mM pH 7.5)	cleavage at L60 as % of the total processed peptide (Tris-HCl 25 mM pH 7.5)	cleavage at Q62 as % of the total processed peptide (Tris-HCl 25 mM pH 7.5)	% Degradation (overall % of peptide degraded upon exposure to APEH) (10 nmol/200 μL peptide)	% Degradation (overall % of peptide degraded upon exposure to APEH) (10 nmol/200 μL peptide, listed as GDF11[48-64]ox)	susceptibility to APEH endoprotease cleavage (in words) (Tris-HCl 25 mM pH 7.5)	Substance
8.4%	25.6%	16.4%	49.6%	about 8%	about 26%	about 16%	~28%	18%	around 50%	about 17%	around 32%	50.4%	around 50%	–	Ac-EYM(ox)FM(ox)QKYPHTHLVQQA-NH2 [GDF11[48-64] wt ox, GDF11[48-64]wt bearing sulphoxide groups on M50 and M52, by 3% H2O2 treatment]
–	–	–	–	–	–	–	–	–	–	–	–	–	–	No cleavage	Ac-EYMFMQKYPHTHLVQQA-NH2 [GDF11[48-64]wt, peptide reproducing the 48–64 region of GDF11 protein, acetylated and amidated]
